Results as given in patent US20240376094A2, “SELECTIVE BCL-XL PROTAC COMPOUNDS AND METHODS OF USE” (Les Laboratoires Servier, priority 2021, published 2024).

Tests used:
Assay type in all cases: cell-based
COR-L105 = assay: CellTiter-Glo proliferation assay, COR-L105; settings: Homo sapiens, COR-L105, 120 h, COR-L105, 5 days; for Emax: read-out: COR-L105 Span (max)
Procedure, shortened: (§1)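 Both lines grown in RPMI-1640 + 10% FBS. COR-L105 plated flat at 1,000 cells/well overnight; NCI-H1650 grown as spheroids, 3,000 cells/well, 72 h. Compounds at 0.508 nM-10 μM final for 5 days, 37° C. ATP read by CellTiter-Glo (3D version for spheroids); IC50 from variable-slope fit normalized to untreated cells.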

MOLT-4 cells [1] = assay: MOLT-4 cell viability, MTT assay; settings: Homo sapiens, MOLT-4, 48 h
Procedure, shortened: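 MOLT-4 cells in RPMI 1640 with 10% FBS were exposed to compounds for 48 h at 9 concentrations (3.16-fold dilutions, triplicates). After 4 h with MTT and overnight SDS/HCl solubilisation, absorbance was read at 540 nm. IC50 came from four-parameter fits versus control, as the mean of ≥2 independent experiments.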

Bcl-xL = target: T1, Bcl-xL (Homo sapiens, UniProt Q07817); assay: HCT116 Bcl-xL degradation, capillary-based immunoassay (WES); settings: for remaining activity at 0.01 µM / remaining activity at 0.1 µM: HCT-116, 24 h, % of untreated cells; for remaining activity at 0.01 µM: HCT116, 10 nM; for remaining activity at 0.1 µM: HCT116, 100 nM; for DC50: HCT116, 24 h, 9-point serial dilution
T1 construct: Measured levels of Bcl-xL protein of HCT116 cells treated with the tested compounds; host or cells: HCT116
Procedure, shortened: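 Bcl-xL protein level by capillary WES immunoassay in HCT116 lysates, as % of untreated after cofilin normalization. Compound exposure was 24 h at 10 and 100 nM and/or a 9-point series, in quadruplicate. Four-parameter fitting gave the DC50.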

NCI-H1650 = assay: CellTiter-Glo 3D proliferation assay, NCI-H1650 spheroids; design: key to NCI-H1650 Span (Amax): —: constructs were tested and inactive; settings: 5 days; for IC50 / Emax: Homo sapiens, NCI-H1650, 120 h; for Emax: read-out: NCI-H1650 Span (Amax)
Procedure, shortened: as §1

MOLT-4 cells [2] = assay: MOLT-4 cell viability, CTG assay; settings: MOLT-4, 48 h
Procedure, shortened: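 Viability read as total ATP luminescence (CTG) after 48 h compound treatment, 11 points at 5-fold spacing in triplicate, cells in RPMI 1640/10% FBS. IC50 is the concentration halving signal relative to control, four-parameter fit, averaged over at least 2 experiments.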

endogenous BCL-xL = target: T2, endogenous BCL-xL (Homo sapiens, UniProt Q07817); assay: Degradation of endogenous BCL-xL in COR-L105 (ProteinSimple Jess); settings: COR-L105, 24 h, COR-L105, dose 300 nM, read-out: % BCL-xL vs. Untreated, COR-L105
T2 construct: endogenous in cells; host or cells: COR-L105 (ECACC No. 92031918); NCI-H1650 (ATCC No. CRL-5883)
Procedure: The BCL-xL degrader low molecular weight compounds were tested against two endogenous cancer cell lines: • COR-L105: ECACC No. 92031918 cultured in RPMI-1640+10% FBS • NCI-H1650: (ATCC No. CRL-5883 cultured in RPMI-1640+10% FBS
The ability of the BCL-xL degrader low molecular weight compounds to degrade endogenous BCL-xL was assessed using the ProteinSimple 2-40 kDa Jess Separation Module.
Cell lines were cultured in media that is optimal for their growth at 5% CO2, 37° C. in a tissue culture incubator. Prior to seeding for the degradation assay, the cells were split at least 2 days before the assay to ensure optimal growth density. On the day of seeding, adherent cells were lifted off tissue culture flasks using 0.25% trypsin. Cell viability and cell density were determined using a cell counter (Vi-Cell XR Cell Viability Analyzer, Beckman Coulter). Cells with higher than 85% viability were seeded for the assay.
The COR-L105 and the NCI-H1650 cell line were seeded in 6-well clear TC-treated multiple well plates (Costar® cat. #3516). Cells were seeded at a density of 2,000,000 cells per well in 2.5 mL of standard growth media. Plates were incubated at 5% CO2, 37° C. overnight in a tissue culture incubator. On the day of dosing, BCL-xL degrader low molecular weight compounds and a BCL-xL inhibitor control were prepared at 6× in standard growth media. The prepared drug treatments were then added to the cells resulting in a final concentration of 100-300 nM and a final volume of 3.0 mL per well. A control well of untreated cells was also included in the study. Each drug concentration was tested in singlet. Plates were incubated at 5% CO2, 37° C. for 24 hours in a tissue culture incubator.
After 24 hours, the adherent cells were lifted off tissue culture plates using 0.25% trypsin. Standard growth media was added to quench the trypsin and centrifuged for 5 minutes at 1500 rpm. Cell pellets were washed once with cold PBS and centrifuged for 5 minutes at 1500 rpm. Cells were then washed with 1 mL cold PBS and transferred to a 1.5 mL eppendorf tube. Cells were centrifuged for 10 minutes at ≥10,000 g at 4° C. in a benchtop mini-centrifuge. The entire supernatant was discarded and cells were resuspended thoroughly in 50 μL of RIPA lysis buffer, generated by the manufacturer's protocol (ProteinSimple, Cat. #CBS401: Lysis Kit—RIPA Buffer for Charge Assays). Lysates were incubated on ice for 30 minutes. Following incubation, lysates were spun in a benchtop mini-centrifuge for 15 minutes at full speed at 4° C. Supernatant was carefully transferred to a new eppendorf tube for downstream analysis.
Protein was quantified using a Pierce™ BCA Protein Assay Kit (ThermoFisher, cat #23225) following the manufacturer's instructions. A standard curve was prepared by adding 25 μL of each concentration of reference samples from a Pierce™ Bovine Serum Albumin Standard Pre-Diluted Set (ThermoFisher, cat #23208). Each reference sample was run in duplicate. Testing samples were prepared by diluting cell lysates 1:5 in UltraPure™ DNase/RNase-Free Distilled Water and tested in duplicates of 25 μL each. The BCA working reagent was prepared by addition of 50 parts of BCA Reagent A with 1 part of BCA Reagent B. For each testing well, 200 μL of BCA working reagent was added. The plate was incubated at 37° C. for 30 minutes. A SpectraMax M Series Multi-Mode Microplate Reader was used to measure the absorbance at 562 nm. A standard curve generated by the Pierce™ Bovine Serum Albumin Standard Pre-Diluted Set was used to normalize and calculate the BCA concentration of cell lysates. Only values that fell within the range of the standard curve were accepted for quantification.
The ProteinSimple 2-40 kDa Jess Separation Module was used to detect BCL-xL degradation in treated versus untreated lysates following the manufacturer's instructions (25-Capillary Cartridge, 8 pack, 2-40 kDa, cat #SM W012). […]

T1 sequence (Q07817 whole entry): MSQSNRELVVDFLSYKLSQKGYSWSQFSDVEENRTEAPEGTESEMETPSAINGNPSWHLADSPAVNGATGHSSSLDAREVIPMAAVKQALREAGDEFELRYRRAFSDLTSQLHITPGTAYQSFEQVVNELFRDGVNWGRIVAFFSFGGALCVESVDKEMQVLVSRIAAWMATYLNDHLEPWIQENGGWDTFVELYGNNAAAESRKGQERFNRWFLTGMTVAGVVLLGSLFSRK
T2 sequence (Q07817 whole entry): as above

IC50 (MOLT-4 cells [1]) [nM] | remaining activity at 0.01 µM (Bcl-xL) [%] | remaining activity at 0.1 µM (Bcl-xL) [%] | IC50 (NCI-H1650) [nM] | DC50 (Bcl-xL) [nM] | IC50 (MOLT-4 cells [2]) [nM] | remaining activity at 0.3 µM (endogenous BCL-xL) [%] | SMILES | IC50 (COR-L105) [nM] | Emax (COR-L105) [%] | Emax (NCI-H1650) [%] | NCI-H1650 Span (Amax) (NCI-H1650)
20.9 | 63 | 51 | 56.9 | > 316 | 26 |  | Cc1c(Nc2nc3ccccc3s2)nnc2c1CCCN2c1nc(C(=O)O)c(CCCOc2ccc(C#CCN3CCN(C(=O)CCCC(=O)NCCOCCNC(=O)COc4cccc5c4C(=O)N(C4CCC(=O)NC4=O)C5=O)CC3)cc2F)s1 (stereo not drawn) [Example 26, 2-[3-(1,3-benzothiazol-2-ylamino)-4-methyl-6,7-dihydro-5H-pyrido[2,3-c]pyridazin-8-yl]-5-[3-[4-[3-[4-[5-[2-[2-[[2-[2-(2,6-dioxo-3-piperidyl)-1,3-dioxo-isoindolin-4-yl]oxyacetyl]amino]ethoxy]ethylamino]-5-oxo-pentanoyl]piperazin-1-yl]prop-1-ynyl]-2-fluoro-phenoxy]propyl]thiazole-4-carboxylic acid] | 212 | 88 | 70.1 | 
64.2 | 83 | 53 | > 1000 |  |  |  | Cc1cc(N(C)c2nc(C(=O)O)c(CCCOc3ccc(C#CCN(C)CC(=O)NCCOCCNC(=O)COc4cccc5c4C(=O)N(C4CCC(=O)NC4=O)C5=O)cc3F)s2)nnc1Nc1nc2ccccc2s1 (stereo not drawn) [Example 32, 2-[[6-(1,3-benzothiazol-2-ylamino)-5-methyl-pyridazin-3-yl]-methyl-amino]-5-[3-[4-[3-[[2-[2-[2-[[2-[2-(2,6-dioxo-3-piperidyl)-1,3-dioxo-isoindolin-4-yl]oxyacetyl]amino]ethoxy]ethylamino]-2-oxo-ethyl]-methyl-amino]prop-1-ynyl]-2-fluoro-phenoxy]propyl]thiazole-4-carboxylic acid] | > 10000 |  |  | —

Continued, compound first:

SMILES | IC50 (MOLT-4 cells [1]) [nM] | remaining activity at 0.01 µM (Bcl-xL) [%] | remaining activity at 0.1 µM (Bcl-xL) [%] | IC50 (NCI-H1650) [nM] | DC50 (Bcl-xL) [nM] | IC50 (MOLT-4 cells [2]) [nM] | remaining activity at 0.3 µM (endogenous BCL-xL) [%] | IC50 (COR-L105) [nM] | Emax (COR-L105) [%] | Emax (NCI-H1650) [%] | NCI-H1650 Span (Amax) (NCI-H1650)
Cc1ncsc1-c1ccc(CNC(=O)[C@@H]2CC(O)CN2C(=O)C(NC(=O)CCCCC(=O)N2CCN(CCOC34CC5(C)CC(C)(CC(Cn6ncc(-c7ccc(N8CCCc9c8nnc(Nc8nc%10ccccc%10s8)c9C)nc7C(=O)O)c6C)(C5)C3)C4)CC2)C(C)(C)C)cc1 (stereo in doubt) [Example 23, 6-[3-(1,3-benzothiazol-2-ylamino)-4-methyl-6,7-dihydro-5H-pyrido[2,3-c]pyridazin-8-yl]-3-[1-[[3-[2-[4-[6-[[(1S)-1-[(2S,4R)-4-hydroxy-2-[[4-(4-methylthiazol-5-yl)phenyl]methylcarbamoyl]pyrrolidine-1-carbonyl]-2,2-dimethyl-propyl]amino]-6-oxo-hexanoyl]piperazin-1-yl]ethoxy]-5,7-dimethyl-1-adamantyl]methyl]-5-methyl-pyrazol-4-yl]pyridine-2-carboxylic acid] | 10.5 | 82 | 67 | 35.7 |  |  |  | 183 | 100 | 71.4 | 
Cc1c(Nc2nc3ccccc3s2)nnc2c1CCCN2c1nc(C(=O)O)c(CCCOc2ccc(C#CCN3CCN(C(=O)CCCCCCC(=O)NCCOCCNC(=O)COc4cccc5c4C(=O)N(C4CCC(=O)NC4=O)C5=O)CC3)cc2F)s1 (stereo not drawn) [Example 25, 2-[3-(1,3-benzothiazol-2-ylamino)-4-methyl-6,7-dihydro-5H-pyrido[2,3-c]pyridazin-8-yl]-5-[3-[4-[3-[4-[8-[2-[2-[[2-[2-(2,6-dioxo-3-piperidyl)-1,3-dioxo-isoindolin-4-yl]oxyacetyl]amino]ethoxy]ethylamino]-8-oxo-octanoyl]piperazin-1-yl]prop-1-ynyl]-2-fluoro-phenoxy]propyl]thiazole-4-carboxylic acid] | 1.09 | 59 | 55 | 38.8 | > 316 |  |  | 174 | 87.4 | 74 | 
Cc1ncsc1-c1ccc([C@H](C)NC(=O)[C@@H]2C[C@@H](O)CN2C(=O)[C@@H](NC(=O)CCCCCC(=O)N2CCN(CC#Cc3ccc(OCCCc4sc(N5CCCc6c5nnc(Nc5nc7ccccc7s5)c6C)nc4C(=O)O)c(F)c3)CC2)C(C)(C)C)cc1 [Example 34, 2-(3-(benzo[d]thiazol-2-ylamino)-4-methyl-6,7-dihydropyrido [2,3-c]pyridazin-8(5H)-yl)-5-(3-(2-fluoro-4-(3-(4-(7-(((S)-1-((2S,4R)-4-hydroxy-2-(((S)-1-(4-(4-methylthiazol-5-yl)phenyl)ethyl)carbamoyl)pyrrolidin-1-yl)-3,3-dimethyl-1-oxobutan-2-yl)amino)-7-oxoheptanoyl)piperazin-1-yl)prop-1-yn-1-yl)phenoxy)propyl)thiazole-4-carboxylic acid] |  |  |  | 7.67 |  |  | 74.5 | 74.2 | 82.7 | 55.4 | 
Cc1ncsc1-c1ccc(CNC(=O)[C@@H]2C[C@@H](O)CN2C(=O)[C@@H](NC(=O)C2(F)CC2)C(C)(C)C)c(OCC(=O)NCCCCC(=O)N2CCN(CC#Cc3ccc(OCCCc4sc(N5CCCc6c5nnc(Nc5nc7ccccc7s5)c6C)nc4C(=O)O)c(F)c3)CC2)c1 [Example 44, 2-(3-(benzo[d]thiazol-2-ylamino)-4-methyl-6,7-dihydropyrido [2,3-c]pyridazin-8(5H)-yl)-5-(3-(2-fluoro-4-(3-(4-(5-(2-(2-(((2S,4R)-1-((S)-2-(1-fluorocyclopropane-1-carboxamido)-3,3-dimethylbutanoyl)-4-hydroxypyrrolidine-2-carboxamido)methyl)-5-(4-methylthiazol-5-yl)phenoxy)acetamido)pentanoyl)piperazin-1-yl)prop-1-yn-1-yl)phenoxy)propyl)thiazole-4-carboxylic acid] |  |  |  |  |  |  | 58.3 |  |  |  | 
